# In PubChem BioAssay (NCI):
#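 In this assay, cells in 96-well plates receive the compound at five concentrations for 48 hours. Endpoints are linearly interpolated between the surrounding concentrations. GI50 is the concentration that inhibits growth by half. TGI denotes the concentration required for complete inhibition of growth.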
# How the values were obtained:
# Assay in all cases: NCI tumour cell line growth inhibition, 48 h
# EKVX NSCLC = test system: EKVX NSCLC
# CAKI-1 renal = test system: CAKI-1 renal
# NCI-H460 lung = test system: NCI-H460 lung
# PC-3 prostate = test system: PC-3 prostate
# SR leukemia = test system: SR leukemia
# COLO 205 colon = test system: COLO 205 colon
# UACC-62 melanoma = test system: UACC-62 melanoma
# SW-620 colon = test system: SW-620 colon
# SNB-75 CNS = test system: SNB-75 CNS
# SNB-19 CNS = test system: SNB-19 CNS
# KM12 colon = test system: KM12 colon
# SN12C renal = test system: SN12C renal
# MALME-3M melanoma = test system: MALME-3M melanoma
# MDA-MB-435 = test system: MDA-MB-435
# ACHN renal = test system: ACHN renal
# A549 NSCLC = test system: A549 NSCLC
# OVCAR-4 ovarian = test system: OVCAR-4 ovarian
# SK-MEL-2 melanoma = test system: SK-MEL-2 melanoma
# SK-MEL-5 melanoma = test system: SK-MEL-5 melanoma
# HS 578T breast = test system: HS 578T breast
# MCF7 breast = test system: MCF7 breast
# DU-145 prostate = test system: DU-145 prostate
# OVCAR-5 ovarian = test system: OVCAR-5 ovarian
# OVCAR-3 ovarian = test system: OVCAR-3 ovarian
# LOX IMVI melanoma = test system: LOX IMVI melanoma
# SF-268 CNS = test system: SF-268 CNS
# SK-MEL-28 melanoma = test system: SK-MEL-28 melanoma
# NCI/ADR-RES ovarian = test system: NCI/ADR-RES ovarian
# HOP-92 NSCLC = test system: HOP-92 NSCLC
structure (smiles),measurement,setting,value
N#C/C(=C\c1cn(Cc2ccccc2)c2ccccc12)C(=O)Nc1ncc(Cc2ccccc2Cl)s1,GI50,EKVX NSCLC,2820 nM
same,TGI,EKVX NSCLC,12700 nM
same,GI50,CAKI-1 renal,1430 nM
same,TGI,CAKI-1 renal,3750 nM
same,GI50,NCI-H460 lung,530 nM
same,TGI,NCI-H460 lung,1990 nM
same,GI50,PC-3 prostate,2010 nM
same,TGI,PC-3 prostate,7480 nM
same,GI50,SR leukemia,1110 nM
same,TGI,SR leukemia,3580 nM
same,GI50,COLO 205 colon,1140 nM
same,TGI,COLO 205 colon,2810 nM
same,GI50,UACC-62 melanoma,1520 nM
same,TGI,UACC-62 melanoma,3160 nM
same,GI50,SW-620 colon,1520 nM
same,TGI,SW-620 colon,4200 nM
same,GI50,SNB-75 CNS,1500 nM
same,TGI,SNB-75 CNS,4540 nM
same,GI50,SNB-19 CNS,3070 nM
same,TGI,SNB-19 CNS,17800 nM
same,GI50,KM12 colon,1890 nM
same,TGI,KM12 colon,6620 nM
same,GI50,SN12C renal,1570 nM
same,TGI,SN12C renal,3880 nM
same,GI50,MALME-3M melanoma,1780 nM
same,TGI,MALME-3M melanoma,4140 nM
same,GI50,MDA-MB-435,1790 nM
same,TGI,MDA-MB-435,4720 nM
same,GI50,ACHN renal,823 nM
same,TGI,ACHN renal,2140 nM
same,GI50,A549 NSCLC,1790 nM
same,TGI,A549 NSCLC,6020 nM
same,GI50,OVCAR-4 ovarian,393 nM
same,TGI,OVCAR-4 ovarian,1610 nM
same,GI50,SK-MEL-2 melanoma,2050 nM
same,TGI,SK-MEL-2 melanoma,4850 nM
same,GI50,SK-MEL-5 melanoma,2620 nM
same,TGI,SK-MEL-5 melanoma,7080 nM
same,GI50,HS 578T breast,1930 nM
same,TGI,HS 578T breast,7080 nM
same,GI50,MCF7 breast,3010 nM
same,TGI,MCF7 breast,> 100000 nM
same,GI50,DU-145 prostate,2750 nM
same,TGI,DU-145 prostate,> 100000 nM
same,GI50,OVCAR-5 ovarian,1700 nM
same,TGI,OVCAR-5 ovarian,4590 nM
same,GI50,OVCAR-3 ovarian,1560 nM
same,TGI,OVCAR-3 ovarian,3620 nM
same,GI50,LOX IMVI melanoma,4610 nM
same,TGI,LOX IMVI melanoma,48800 nM
same,GI50,SF-268 CNS,2790 nM
same,TGI,SF-268 CNS,23400 nM
same,GI50,SK-MEL-28 melanoma,2360 nM
same,TGI,SK-MEL-28 melanoma,6740 nM
same,GI50,NCI/ADR-RES ovarian,2680 nM
same,TGI,NCI/ADR-RES ovarian,13300 nM
same,GI50,HOP-92 NSCLC,1880 nM
same,TGI,HOP-92 NSCLC,6000 nM
